Tested on: 931267-113-T-J1-PDC multicell spheroid viability
Test: Anticancer human tumor 931267-113-T-J1-PDC patient-derived colon adenocarcinoma cell line growth inhibition [PI3K]
Conditions: for IC50: curve of first compound; for viability, T/C: stronger effect = lower value
In short: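 Multi-cell spheroids combine tumor cells with HUVEC and human MSCs, treated with targeted agents alone or with inavolisib, alpelisib, duvelisib or copanlisib. Concentrations fall in half-log steps from at or near clinical Cmax, or from 10 microM where Cmax is unknown; viability read-out.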

[1] = second compound 0.00316 µM, first compound 0.0316 µM
[2] = second compound 0.00316 µM, first compound 0.1 µM
[3] = second compound 0.01 µM, first compound 0.0316 µM
[4] = second compound 0.01 µM, first compound 0.1 µM
[5] = second compound 0.0316 µM, first compound 0.0316 µM
[6] = second compound 0.0316 µM, first compound 0.1 µM
[7] = second compound 0.1 µM, first compound 0.0316 µM
[8] = second compound 0.1 µM, first compound 0.1 µM
[9] = second compound 0.316 µM, first compound 0.0316 µM
[10] = second compound 0.316 µM, first compound 0.1 µM
[11] = second compound 1 µM, first compound 0.0316 µM
[12] = second compound 1 µM, first compound 0.1 µM
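Note: viability read 7 days after compound addition.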

`CC(=O)c1c(C)c2cnc(Nc3ccc(N4CCNCC4)cn3)nc2n(C2CCCC2)c1=O` + COc1c(OCCCN2CCOCC2)ccc2c3n(c(=NC(=O)c4cnc(N)nc4)nc12)CCN3 gave an IC50 (second compound 0.00316 µM) greater than 100 nM, an IC50 (second compound 0.01 µM) greater than 100 nM and an IC50 (second compound 0.0316 µM) greater than 100 nM. For the same compound, the IC50 (second compound 0.1 µM) was greater than 100 nM, the IC50 (second compound 0.316 µM) was 0.489 nM and the IC50 (second compound 1 µM) was less than 0.316 nM. It also gave a viability, T/C (second compound 0.00316 µM, first compound 0.000316 µM) of 108%, a viability, T/C (second compound 0.00316 µM, first compound 0.001 µM) of 102% and a viability, T/C (second compound 0.00316 µM, first compound 0.00316 µM) of 94.8%. It also gave a viability, T/C (second compound 0.00316 µM, first compound 0.01 µM) of 99.6%, a viability, T/C [1] of 97.3% and a viability, T/C [2] of 94.8%. It also gave a viability, T/C (second compound 0.01 µM, first compound 0.000316 µM) of 105%, a viability, T/C (second compound 0.01 µM, first compound 0.001 µM) of 97.7% and a viability, T/C (second compound 0.01 µM, first compound 0.00316 µM) of 92.7%. It also gave a viability, T/C (second compound 0.01 µM, first compound 0.01 µM) of 94%, a viability, T/C [3] of 98.6% and a viability, T/C [4] of 91.5%. It also gave a viability, T/C (second compound 0.0316 µM, first compound 0.000316 µM) of 77.5%, a viability, T/C (second compound 0.0316 µM, first compound 0.001 µM) of 84.4% and a viability, T/C (second compound 0.0316 µM, first compound 0.00316 µM) of 76.2%. It also gave a viability, T/C (second compound 0.0316 µM, first compound 0.01 µM) of 80.9%, a viability, T/C [5] of 82.3% and a viability, T/C [6] of 79.4%. The viability, T/C (second compound 0.1 µM, first compound 0.000316 µM) was 70.8%, the viability, T/C (second compound 0.1 µM, first compound 0.001 µM) was 65% and the viability, T/C (second compound 0.1 µM, first compound 0.00316 µM) was 66.2%. The viability, T/C (second compound 0.1 µM, first compound 0.01 µM) was 64.1%, the viability, T/C [7] was 67.7% and the viability, T/C [8] was 51.2%. The viability, T/C (second compound 0.316 µM, first compound 0.000316 µM) was 51.9%, the viability, T/C (second compound 0.316 µM, first compound 0.001 µM) was 47.2% and the viability, T/C (second compound 0.316 µM, first compound 0.00316 µM) was 47.6%. The viability, T/C (second compound 0.316 µM, first compound 0.01 µM) was 43.8%, the viability, T/C [9] was 44.5% and the viability, T/C [10] was 37.5%. For the same compound, the viability, T/C (second compound 1 µM, first compound 0.000316 µM) was 35.1%, the viability, T/C (second compound 1 µM, first compound 0.001 µM) was 35.9% and the viability, T/C (second compound 1 µM, first compound 0.00316 µM) was 32.2%. It also gave a viability, T/C (second compound 1 µM, first compound 0.01 µM) of 31.9%, a viability, T/C [11] of 34.3% and a viability, T/C [12] of 26.1%.
`CNC(=O)c1ccc(N2C(=S)N(c3ccc(C#N)c(C(F)(F)F)c3)C(=O)C2(C)C)cc1F` + COc1c(OCCCN2CCOCC2)ccc2c3n(c(=NC(=O)c4cnc(N)nc4)nc12)CCN3 was tested, and the IC50 (second compound 0.00316 µM) was greater than 10000 nM, the IC50 (second compound 0.01 µM) was greater than 10000 nM and the IC50 (second compound 0.0316 µM) was greater than 10000 nM. For the same compound, the IC50 (second compound 0.1 µM) was greater than 10000 nM, the IC50 (second compound 0.316 µM) was 1560 nM and the IC50 (second compound 1 µM) was less than 31.6 nM. It also gave a viability, T/C [1] of 109%, a viability, T/C [2] of 107% and a viability, T/C (second compound 0.00316 µM, first compound 0.316 µM) of 99.3%. It also gave a viability, T/C (second compound 0.00316 µM, first compound 1 µM) of 101%, a viability, T/C (second compound 0.00316 µM, first compound 3.16 µM) of 104% and a viability, T/C (second compound 0.00316 µM, first compound 10 µM) of 104%. For the same compound, the viability, T/C [3] was 105%, the viability, T/C [4] was 93.5% and the viability, T/C (second compound 0.01 µM, first compound 0.316 µM) was 102%. For the same compound, the viability, T/C (second compound 0.01 µM, first compound 1 µM) was 92%, the viability, T/C (second compound 0.01 µM, first compound 3.16 µM) was 100% and the viability, T/C (second compound 0.01 µM, first compound 10 µM) was 94.2%. It also gave a viability, T/C [5] of 85.2%, a viability, T/C [6] of 80.7% and a viability, T/C (second compound 0.0316 µM, first compound 0.316 µM) of 85.7%. For the same compound, the viability, T/C (second compound 0.0316 µM, first compound 1 µM) was 86.8%, the viability, T/C (second compound 0.0316 µM, first compound 3.16 µM) was 93.2% and the viability, T/C (second compound 0.0316 µM, first compound 10 µM) was 74.4%. For the same compound, the viability, T/C [7] was 70.8%, the viability, T/C [8] was 68.5% and the viability, T/C (second compound 0.1 µM, first compound 0.316 µM) was 75.7%. It also gave a viability, T/C (second compound 0.1 µM, first compound 1 µM) of 68.5%, a viability, T/C (second compound 0.1 µM, first compound 3.16 µM) of 69.1% and a viability, T/C (second compound 0.1 µM, first compound 10 µM) of 57.8%. The viability, T/C [9] was 51%, the viability, T/C [10] was 55.9% and the viability, T/C (second compound 0.316 µM, first compound 0.316 µM) was 53.9%. It also gave a viability, T/C (second compound 0.316 µM, first compound 1 µM) of 52%, a viability, T/C (second compound 0.316 µM, first compound 3.16 µM) of 46.4% and a viability, T/C (second compound 0.316 µM, first compound 10 µM) of 40.8%. The viability, T/C [11] was 36.4%, the viability, T/C [12] was 38.4% and the viability, T/C (second compound 1 µM, first compound 0.316 µM) was 39.3%. The viability, T/C (second compound 1 µM, first compound 1 µM) was 34.2%, the viability, T/C (second compound 1 µM, first compound 3.16 µM) was 36.1% and the viability, T/C (second compound 1 µM, first compound 10 µM) was 30.1%.
`Cn1cnc2c(F)c(Nc3ccc(Br)cc3Cl)c(C(=O)NOCCO)cc21` + COc1c(OCCCN2CCOCC2)ccc2c3n(c(=NC(=O)c4cnc(N)nc4)nc12)CCN3 showed an IC50 (second compound 0.00316 µM) of 103 nM, an IC50 (second compound 0.01 µM) of 81 nM and an IC50 (second compound 0.0316 µM) of 42.2 nM. For the same compound, the IC50 (second compound 0.1 µM) was 14 nM, the IC50 (second compound 0.316 µM) was less than 9.49 nM and the IC50 (second compound 1 µM) was less than 9.49 nM. It also gave a viability, T/C (second compound 0.00316 µM, first compound 0.00949 µM) of 83.7%, a viability, T/C (second compound 0.00316 µM, first compound 0.03 µM) of 71% and a viability, T/C (second compound 0.00316 µM, first compound 0.0949 µM) of 51.1%. It also gave a viability, T/C (second compound 0.00316 µM, first compound 0.3 µM) of 31.4%, a viability, T/C (second compound 0.00316 µM, first compound 0.949 µM) of 18.3% and a viability, T/C (second compound 0.00316 µM, first compound 3 µM) of 9.54%. It also gave a viability, T/C (second compound 0.01 µM, first compound 0.00949 µM) of 88.6%, a viability, T/C (second compound 0.01 µM, first compound 0.03 µM) of 73.1% and a viability, T/C (second compound 0.01 µM, first compound 0.0949 µM) of 45%. It also gave a viability, T/C (second compound 0.01 µM, first compound 0.3 µM) of 25.6%, a viability, T/C (second compound 0.01 µM, first compound 0.949 µM) of 15.3% and a viability, T/C (second compound 0.01 µM, first compound 3 µM) of 8.03%. It also gave a viability, T/C (second compound 0.0316 µM, first compound 0.00949 µM) of 76.4%, a viability, T/C (second compound 0.0316 µM, first compound 0.03 µM) of 57% and a viability, T/C (second compound 0.0316 µM, first compound 0.0949 µM) of 33.7%. It also gave a viability, T/C (second compound 0.0316 µM, first compound 0.3 µM) of 17.5%, a viability, T/C (second compound 0.0316 µM, first compound 0.949 µM) of 10.3% and a viability, T/C (second compound 0.0316 µM, first compound 3 µM) of 5.43%. For the same compound, the viability, T/C (second compound 0.1 µM, first compound 0.00949 µM) was 56.4%, the viability, T/C (second compound 0.1 µM, first compound 0.03 µM) was 37.7% and the viability, T/C (second compound 0.1 µM, first compound 0.0949 µM) was 19.6%. For the same compound, the viability, T/C (second compound 0.1 µM, first compound 0.3 µM) was 11.9%, the viability, T/C (second compound 0.1 µM, first compound 0.949 µM) was 7.31% and the viability, T/C (second compound 0.1 µM, first compound 3 µM) was 4.08%. The viability, T/C (second compound 0.316 µM, first compound 0.00949 µM) was 39.2%, the viability, T/C (second compound 0.316 µM, first compound 0.03 µM) was 25.2% and the viability, T/C (second compound 0.316 µM, first compound 0.0949 µM) was 14.3%. For the same compound, the viability, T/C (second compound 0.316 µM, first compound 0.3 µM) was 8.7%, the viability, T/C (second compound 0.316 µM, first compound 0.949 µM) was 5.28% and the viability, T/C (second compound 0.316 µM, first compound 3 µM) was 2.51%. The viability, T/C (second compound 1 µM, first compound 0.00949 µM) was 26.2%, the viability, T/C (second compound 1 µM, first compound 0.03 µM) was 17.8% and the viability, T/C (second compound 1 µM, first compound 0.0949 µM) was 9.52%. The viability, T/C (second compound 1 µM, first compound 0.3 µM) was 4.72%, the viability, T/C (second compound 1 µM, first compound 0.949 µM) was 2.93% and the viability, T/C (second compound 1 µM, first compound 3 µM) was 1.42%.
